How the values were obtained:
[1] = system: adult rat spinal cord primary cultures; assay: Spinal cord neurons neurite outgrowth assay; format: cell-based; conditions: 10 μM HU-MCA-13
Experimental: To study the effect of HU-MCA-13 on adult rat spinal cord primary cultures in vitro, we developed a purification procedure that yields enriched different types of spinal cord neuronal cultures. This neurotropic assay was performed using vehicle 1% DMSO in DMEM as control and 10 μM HU-MCA-13. The results in Figure 1 bottom row and Figure 3D clearly indicate that in control there was very poor spontaneous neurite outgrowth of a total length of about 180 μm and NGF induced neurite outgrowth to a total length of about 800 μm. Similarly, HU-MCA-13 induced a neurite outgrowth of 600 μm. Figure 2B indicates cytoskeletal-tubulin protein expression in the cultured neurons. These findings further extend the neurotropic effect of HU-MCA-13 to spinal cord neurons, in addition to DRGs and PC12 cells.
Spinal cords were isolated from adult rats (4–6 months old), and the meninges were removed from the spinal cord. The spinal cord was then cut into small pieces and collected in cold Hibernate A (Brainbits, Springfield, IL, USA), glutamine (0.5 mM), and B27 (Invitrogen, Carlsbad, CA). […] Neurite outgrowth was measured and presented as mean length of a neurite (microns). To measure neuronal survival, 450 cells were counted in 10 randomly chosen microscope fields of a known area in each of the three dishes per condition using a 20× objective and phase-contrast optics. […]

calcineurin phosphatase = assay: PhosphoSens CSox based phosphatase assay; format: biochemical; conditions: 5 μM HU-MCA-13
From the text: The initial focus was to measure the modulatory activity in vitro of MCA-13 on protein kinases which were reported to be involved in induction of neurite outgrowth.[18],[43] To do this, we took advantage of a powerful method to measure the activity of recombinant protein kinases using a homogeneous and continuous (kinetic) format, where the level of chelation-enhanced fluorescence (CHEF) is directly proportional to the amount of phosphorylated, real-time sensors consisting of sulfonamido-oxine (Sox) chromophore linked to a peptide or protein substrates of selective kinases.[44] […]
Kinase activity was measured continuously using the PhosphoSens®technology (AssayQuant Technologies Inc., Marlborough, MA) according to the manufacturers’ recommendations (http://www.assayquant.com/) . This one-step homogeneous assay use s chelation-enh anced fluorescence via optimized substrate sensors unique for each kinase, containing the unnatural fluorogenic amino-acid Sox. […]
Protein kinase activity was determined in 54 mM HEPES, pH 7.5 1 mM ATP 1.2 mM DTT (none in ASK1) 0.012% Brij-35 1% glycerol 0.2 mg/ml BSA 0.52 mM EGTA (none in assays of CAMK2α, PKCε, PKCι, Calcineurin A/B) 140 µM phosphatidylserine/3.8 µM diacylglycerol (PKCε, PKCι only) 5 ng/µl calmodulin/0.4 mM CaCl2 (CAMK2α, Calcineurin A/B only) 10 mM […]

## C=CCC1CCCC(CCC(=O)O)C1=C (centres unmarked) [HU-MCA-13, 3-(3-allyl-2-methylenecyclohexyl)propanoic acid]
[1]
  neurite outgrowth total length: 600 μm
Calcineurin phosphatase
  effect on phosphatase activity: no effects
